Assay [1] deals with T1, HDAC6 enzyme (Homo sapiens, UniProt Q9UBN7).
T1 construct: prepared by transducing full length HDAC1 and HDAC6 genes into Sf-9 insect cells; GST; purchased SignalChem; host or cells: Sf-9 insect cells
T1 sequence (Q9UBN7 1-1215): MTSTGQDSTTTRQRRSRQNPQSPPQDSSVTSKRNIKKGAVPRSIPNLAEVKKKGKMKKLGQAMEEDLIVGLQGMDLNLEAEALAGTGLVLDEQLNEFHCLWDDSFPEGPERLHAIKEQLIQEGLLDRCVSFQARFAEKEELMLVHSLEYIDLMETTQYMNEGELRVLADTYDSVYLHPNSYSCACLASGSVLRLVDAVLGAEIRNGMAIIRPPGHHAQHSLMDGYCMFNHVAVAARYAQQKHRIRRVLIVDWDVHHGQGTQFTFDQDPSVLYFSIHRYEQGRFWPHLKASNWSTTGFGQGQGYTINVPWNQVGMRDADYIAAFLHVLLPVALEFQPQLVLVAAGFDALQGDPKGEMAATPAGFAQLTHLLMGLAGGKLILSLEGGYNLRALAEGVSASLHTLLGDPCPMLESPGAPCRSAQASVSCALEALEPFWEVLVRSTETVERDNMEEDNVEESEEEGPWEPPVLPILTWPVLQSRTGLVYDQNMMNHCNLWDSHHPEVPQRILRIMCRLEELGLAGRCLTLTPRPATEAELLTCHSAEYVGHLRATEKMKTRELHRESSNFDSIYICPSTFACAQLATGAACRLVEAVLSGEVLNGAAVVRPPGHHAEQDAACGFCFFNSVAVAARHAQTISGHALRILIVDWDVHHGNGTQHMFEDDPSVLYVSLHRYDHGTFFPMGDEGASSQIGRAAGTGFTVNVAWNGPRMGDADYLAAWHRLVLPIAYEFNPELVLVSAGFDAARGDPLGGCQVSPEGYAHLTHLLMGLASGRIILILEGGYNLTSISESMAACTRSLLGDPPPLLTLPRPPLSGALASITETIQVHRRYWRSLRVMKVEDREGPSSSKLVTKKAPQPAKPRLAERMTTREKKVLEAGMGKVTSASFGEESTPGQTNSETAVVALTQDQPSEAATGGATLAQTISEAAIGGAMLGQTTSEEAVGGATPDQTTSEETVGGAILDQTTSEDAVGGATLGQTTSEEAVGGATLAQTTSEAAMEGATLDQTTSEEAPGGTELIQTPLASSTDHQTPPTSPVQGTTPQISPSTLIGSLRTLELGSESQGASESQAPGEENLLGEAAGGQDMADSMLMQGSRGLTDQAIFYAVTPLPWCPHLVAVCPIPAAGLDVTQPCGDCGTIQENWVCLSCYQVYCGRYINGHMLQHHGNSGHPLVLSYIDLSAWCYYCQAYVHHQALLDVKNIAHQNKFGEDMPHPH
The experiment in a line: HDAC6 enzyme inhibitory assay (HDAC-Glo I/II Assay kit). Type of assay: biochemical. The note with it: 1 μM test compound; for inhibition at 1 µM: read-out: HDAC6 inhibitory rate (%) (1 μM). The essentials: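 Sf-9-expressed GST-purified full-length HDAC1/HDAC6; cpd + enzyme 60 min RT, 24 mM Tris-HCl pH 7.5, 135 mM NaCl, 0.6 mM glutathione, 0.01% Tween-20; substrate-developer 20 min RT; luminescence; no-enzyme wells = 100% inhibition.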

The target of assay [2] is T2, HDAC1 enzyme (Homo sapiens, UniProt Q13547).
T2 construct: prepared by transducing full length HDAC1 and HDAC6 genes into Sf-9 insect cells; GST; purchased SignalChem; host or cells: Sf-9 insect cells
T2 sequence (Q13547 whole entry): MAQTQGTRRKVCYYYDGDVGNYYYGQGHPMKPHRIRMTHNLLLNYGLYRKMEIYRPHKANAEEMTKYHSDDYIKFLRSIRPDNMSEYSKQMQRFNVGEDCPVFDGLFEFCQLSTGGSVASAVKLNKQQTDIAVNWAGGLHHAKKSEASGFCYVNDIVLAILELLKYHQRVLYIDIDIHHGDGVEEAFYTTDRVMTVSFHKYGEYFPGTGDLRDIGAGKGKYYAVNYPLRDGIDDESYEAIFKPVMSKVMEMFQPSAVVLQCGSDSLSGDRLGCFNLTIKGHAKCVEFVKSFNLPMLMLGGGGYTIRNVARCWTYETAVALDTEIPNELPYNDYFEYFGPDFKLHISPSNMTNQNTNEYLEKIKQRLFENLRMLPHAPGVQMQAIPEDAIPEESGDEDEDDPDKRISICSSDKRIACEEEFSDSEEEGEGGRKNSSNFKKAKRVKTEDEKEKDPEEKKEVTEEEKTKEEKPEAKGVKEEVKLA
The experiment in a line: HDAC1 enzyme inhibitory assay (HDAC-Glo I/II Assay kit). Type of assay: biochemical. The note with it: 1 μM test compound; for inhibition at 1 µM: read-out: HDAC1 inhibitory rate (%) (1 μM). The protocol: HDAC1 enzyme and HDAC6 enzyme each prepared by transducing full length HDAC1 and HDAC6 genes into Sf-9 insect cells and purifying by GST affinity column were purchased from SignalChem. Using these enzymes, HDAC1 and/or HDAC6 enzyme inhibitory activities of the compound of the present invention were evaluated. Enzymes were used after preserved at −70° C. HDAC1 or HDAC6 enzyme inhibitory activity of the compound of the present invention was measured using HDAC-Glo™ I/II Assay kit (Promega) according to the following experimental method. The test compound diluted with assay buffer (24 mM Tris-HCl (pH 7.5), 1 mM MgCl2, 0.35 mM KCl, 135 mM NaCl, 0.6 mM Glutathione, 0.01% Tween-20) was added to a 384-well plate by each 2 μL. Then, HDAC1 or HDAC6 enzyme solution diluted with assay buffer was added thereto by each 4 μL, and the plate was incubated at room temperature for 60 min. After incubated, HDAC substrate-Developer solution prepared according to Promega protocol attached to the assay kit was added to the 384-well plate by each 2 μL, and the enzyme reaction was started. After reacting at room temperature for 20 min, luminescence level was measured using plate reader Envision (PerkinElmer). The inhibitory activity of each compound was calculated as a relative activity value when luminescence level in wells without enzyme is considered as 100% inhibition.

As for `O=C(NCC1COCCN1C(=O)c1ccccc1)c1ccc(-c2noc(C(F)(F)F)n2)s1` (single isomer, unassigned) [Example 257, (R or S)-N-((4-benzoylmorpholin-3-yl)methyl)-5-(5-(trifluoromethyl)-1,2,4-oxadiazol-3-yl)thiophene-2-carboxamide], the inhibition at 1 µM in assay [1] was found to be 97%; in assay [2] it was 23%.

Consider `O=C(NCC1COCCN1C(=O)c1ccccc1)c1ccc(-c2noc(C(F)(F)F)n2)s1` (single isomer, unassigned) [Example 258, (R or S)-N-((4-benzoylmorpholin-3-yl)methyl)-5-(5-(trifluoromethyl)-1,2,4-oxadiazol-3-yl)thiophene-2-carboxamide], for which, in assay [1] (1 µM), the “HDAC6 inhibitory rate (%) (1 μM)” value is 96%. For the same compound, the “HDAC1 inhibitory rate (%) (1 μM)” value in assay [2] (1 µM) was determined as 31%.

As for `Cc1nc2ccccn2c1C(=O)N1CCOCC1CNC(=O)c1ccc(-c2noc(C(F)(F)F)n2)cc1` (stereo in doubt) [Example 92, N-(((3S)-4-((2-methylimidazo[1,2-a]pyridin-3-yl)carbonyl)morpholin-3-yl)methyl)-4-(5-(trifluoromethyl)-1,2,4-oxadiazol-3-yl)benzamide], the figures for the inhibition at 1 µM in assay [1] and in assay [2] were 97% and 36%, respectively.

On to `Cn1nc(C(F)(F)F)cc1C(=O)N1CCOCC1CNC(=O)c1ccc(-c2noc(C(F)(F)F)n2)s1` (centres unmarked) [Example 231, N-((4-((1-methyl-3-(trifluoromethyl)-1H-pyrazol-5-yl)carbonyl)morpholin-3-yl)methyl)-5-(5-(trifluoromethyl)-1,2,4-oxadiazol-3-yl)thiophene-2-carboxamide], for which, in assay [1], the inhibition at 1 µM is 92%.

As to `Cn1cc(C(=O)N2CCOCC2CNC(=O)c2ccc(-c3noc(C(F)(F)F)n3)s2)cn1` (centres unmarked) [Example 233, N-((4-((1-methyl-1H-pyrazol-4-yl)carbonyl)morpholin-3-yl)methyl)-5-(5-(trifluoromethyl)-1,2,4-oxadiazol-3-yl)thiophene-2-carboxamide], the inhibition at 1 µM in assay [1] is 78%.

Take `Cn1cnc(C(=O)N2CCOCC2CNC(=O)c2ccc(-c3noc(C(F)(F)F)n3)s2)c1` (centres unmarked) [Example 234, N-((4-((1-methyl-1H-imidazol-4-yl)carbonyl)morpholin-3-yl)methyl)-5-(5-(trifluoromethyl)-1,2,4-oxadiazol-3-yl)thiophene-2-carboxamide]: the inhibition at 1 µM in assay [1] worked out at 38%.

In the case of `Cc1ncsc1C(=O)N1CCOCC1CNC(=O)c1ccc(-c2noc(C(F)(F)F)n2)s1` (centres unmarked) [Example 238, N-((4-((4-methyl-1,3-thiazol-5-yl)carbonyl)morpholin-3-yl)methyl)-5-(5-(trifluoromethyl)-1,2,4-oxadiazol-3-yl)thiophene-2-carboxamide], in assay [1], the inhibition at 1 µM came to 98%.

For `O=C(NCC1COCCN1C(=O)c1ccno1)c1ccc(-c2noc(C(F)(F)F)n2)s1` (centres unmarked) [Example 239, N-((4-(1,2-oxazol-5-ylcarbonyl)morpholin-3-yl)methyl)-5-(5-(trifluoromethyl)-1,2,4-oxadiazol-3-yl)thiophene-2-carboxamide], in assay [1], the inhibition at 1 µM was found to be 97%.

Turning to `Cc1cc(C(=O)N2CCOCC2CNC(=O)c2ccc(-c3noc(C(F)(F)F)n3)s2)on1` (centres unmarked) [Example 240, N-((4-((3-methyl-1,2-oxazol-5-yl)carbonyl)morpholin-3-yl)methyl)-5-(5-(trifluoromethyl)-1,2,4-oxadiazol-3-yl)thiophene-2-carboxamide], in assay [1], the inhibition at 1 µM turned out to be 89%.

For `O=C(NCC1COCCN1C(=O)c1cccs1)c1ccc(-c2noc(C(F)(F)F)n2)s1` (centres unmarked) [Example 241, N-((4-(2-thienylcarbonyl)morpholin-3-yl)methyl)-5-(5-(trifluoromethyl)-1,2,4-oxadiazol-3-yl)thiophene-2-carboxamide], in assay [1], the inhibition at 1 µM was determined as 94%.

On to `Cc1ccc(C(=O)N2CCOCC2CNC(=O)c2ccc(-c3noc(C(F)(F)F)n3)s2)s1` (centres unmarked) [Example 242, N-((4-((5-methyl-2-thienyl)carbonyl)morpholin-3-yl)methyl)-5-(5-(trifluoromethyl)-1,2,4-oxadiazol-3-yl)thiophene-2-carboxamide], for which the inhibition at 1 µM in assay [1] is 89%.

Consider `Cc1csc(C(=O)N2CCOCC2CNC(=O)c2ccc(-c3noc(C(F)(F)F)n3)s2)c1` (centres unmarked) [Example 243, N-((4-((4-methyl-2-thienyl)carbonyl)morpholin-3-yl)methyl)-5-(5-(trifluoromethyl)-1,2,4-oxadiazol-3-yl)thiophene-2-carboxamide], for which the inhibition at 1 µM in assay [1] was determined as 93%.

For `Cc1ccsc1C(=O)N1CCOCC1CNC(=O)c1ccc(-c2noc(C(F)(F)F)n2)s1` (centres unmarked) [Example 244, N-((4-((3-methyl-2-thienyl)carbonyl)morpholin-3-yl)methyl)-5-(5-(trifluoromethyl)-1,2,4-oxadiazol-3-yl)thiophene-2-carboxamide], the inhibition at 1 µM in assay [1] stood at 96%.

`O=C(NCC1COCCN1C(=O)Cc1cccs1)c1ccc(-c2noc(C(F)(F)F)n2)s1` (centres unmarked) [Example 245, N-((4-(2-thienylacetyl)morpholin-3-yl)methyl)-5-(5-(trifluoromethyl)-1,2,4-oxadiazol-3-yl)thiophene-2-carboxamide]: the inhibition at 1 µM in assay [1] turned out to be 95%.

Turning to `O=C(NCC1COCCN1C(=O)C1(c2ccccc2)CCCCC1)c1ccc(-c2noc(C(F)(F)F)n2)s1` (centres unmarked) [Example 249, N-((4-((1-phenylcyclohexyl)carbonyl)morpholin-3-yl)methyl)-5-(5-(trifluoromethyl)-1,2,4-oxadiazol-3-yl)thiophene-2-carboxamide], the inhibition at 1 µM in assay [1] was 83%.

Regarding `O=C(NCC1COCCN1C(=O)CCc1ccccc1)c1ccc(-c2noc(C(F)(F)F)n2)s1` (centres unmarked) [Example 250, N-((4-(3-phenylpropanoyl)morpholin-3-yl)methyl)-5-(5-(trifluoromethyl)-1,2,4-oxadiazol-3-yl)thiophene-2-carboxamide], the inhibition at 1 µM in assay [1] came to 98%.

`O=C(NCC1COCCN1C(=O)c1cccc2c1OCC2)c1ccc(-c2noc(C(F)(F)F)n2)s1` (centres unmarked) [Example 252, N-((4-(2,3-dihydro-1-benzofuran-7-ylcarbonyl)morpholin-3-yl)methyl)-5-(5-(trifluoromethyl)-1,2,4-oxadiazol-3-yl)thiophene-2-carboxamide]: in assay [1], the inhibition at 1 µM is 91%.

Take `O=C(NCC1COCCN1C(=O)C1CC1)c1ccc(-c2noc(C(F)(F)F)n2)s1` (centres unmarked) [Example 253, N-((4-(cyclopropylcarbonyl)morpholin-3-yl)methyl)-5-(5-(trifluoromethyl)-1,2,4-oxadiazol-3-yl)thiophene-2-carboxamide]: the inhibition at 1 µM in assay [1] amounted to 97%.

Take `O=C(NCC1COCCN1C(=O)C1CCOCC1)c1ccc(-c2noc(C(F)(F)F)n2)s1` (centres unmarked) [Example 255, N-((4-(tetrahydro-2H-pyran-4-ylcarbonyl)morpholin-3-yl)methyl)-5-(5-(trifluoromethyl)-1,2,4-oxadiazol-3-yl)thiophene-2-carboxamide]: in assay [1], the inhibition at 1 µM came out at 93%.

As for `O=C(NCC1COCCN1C(=O)c1ccccc1)c1cc(-c2noc(C(F)(F)F)n2)cs1` (centres unmarked) [Example 267, N-((4-benzoylmorpholin-3-yl)methyl)-4-(5-(trifluoromethyl)-1,2,4-oxadiazol-3-yl)thiophene-2-carboxamide], the inhibition at 1 µM in assay [1] turned out to be 52%.

These data come from patent US10081624B2, “Heterocyclic compound” (Takeda Pharmaceutical Company Limited, priority 2014, dated 2018).
